The values below come from patent US7985755B2, “2,4-diaminoquinazolines for spinal muscular atrophy” (Families of Spinal Muscular Atrophy, priority 2006, dated 2011).

Where a name gives a salt, the structure may show the parent alone.

The test system of one test is SMN2 promoter. As to the kind of experiment: SMN2 promoter assay in NSC-34 cells (β-lactamase reporter). It is filed as cell-based, mouse. The following applies: Mus musculus, Table 1, SMN2 promoter driving β-lactamase, 12 point dose curve, read-out: Promoter Assay EC50. The source says:
All compounds were screened using an in vitro based SMN2 promoter assay. We used NSC-34 cells, a hybrid cell line between mouse spinal cord cells and mouse neuroblastoma cells. NSC-34 cells harbor an expression plasmid containing a 3.4 kb promoter fragment of the SMN2 gene driving β-lactamase expression.
[…] […] CCF2-AM diffuses across the plasma membrane and is converted into an active β-lactamase substrate by cytoplasmic esterase. […] The fold induction is proportional to the extent of β-lactamase produced and in turn proportional to SMN2 promoter activation for a given compound relative to vehicle (DMSO) control. […] These values are used to rank activities of the compounds and derive structure activity relationship.
A word on the EC50: it is the midpoint of the concentration-response curve. In the case of `Nc1nc(N)c2c(OCC3CCN(Cc4cccc(C(=O)O)c4)CC3)cccc2n1` [Example-222, 3-[4-(2,4-Diamino-quinazolin-5-yloxymethyl)-piperidin-1-ylmethyl]-benzoic acid], the EC50 was 1 to 5 µM.

`Nc1nc(N)c2c(OCC3CCN(Cc4ccc(C(=O)O)cc4)CC3)cccc2n1` [Example-223, 4-[4-(2,4-Diamino-quinazolin-5-yloxymethyl)-piperidin-1-ylmethyl]-benzoic Acid]: the EC50 was in the range of 1 to 5 µM.

The test is the same for the next values; noted with them: Mus musculus, Table 3, SMN2 promoter driving β-lactamase, read-out: Promoter Assay EC50.
Turning to `Nc1nc(N)c2c(OCC3CCN(c4ccccc4Cl)CC3)cccc2n1` [Example-163, 5-[1-(2-Chlorophenyl)piperidin-4-ylmethoxy]quinazoline-2,4-diamine], the EC50 was < 1 µM.

The test is the same for the next values; noted with them: Mus musculus, Table 4, SMN2 promoter driving β-lactamase, read-out: Promoter Assay EC50 for 2391.003C(P).
With `Nc1nc(N)c2c(N3CCN(Cc4ccccc4)CC3)cccc2n1` [Example-169, 5-(4-Benzyl-piperazin-1-yl)-quinazoline-2,4-diamine], the half-maximal effective concentration (EC50) is 1 to 5 µM. On the same count and under the same terms, to `Nc1nc(N)c2c(N3CCN(Cc4ccc(Cl)cc4)CC3)cccc2n1` [Example-173, 5-[4-(4-Chloro-benzyl)-piperazin-1-yl]-quinazoline-2,4-diamine] belongs < 1 µM; to `Nc1nc(N)c2c(N3CCN(Cc4ccccc4F)CC3)cccc2n1` [Example-176, 5-[4-(2-Fluoro-benzyl)-piperazin-1-yl]-quinazoline-2,4-diamine], 1 to 5 µM. The same measure, in the same setting: under `Nc1nc(N)c2c(N3CCN(Cc4ccc(F)cc4F)CC3)cccc2n1` [Example-177, 5-[4-(2,4-Difluoro-benzyl)-piperazin-1-yl]-quinazoline-2,4-diamine] stands < 1 µM. As to `Nc1nc(N)c2c(N3CCN(Cc4ccc5c(c4)OCO5)CC3)cccc2n1` [Example-182, 5-(4-Benzo[1,3]dioxol-5-ylmethyl-piperazin-1-yl)-quinazoline-2,4-diamine], the EC50 was < 1 µM.

For the compound `Cc1cccc(CN2CCN(c3cccc4nc(N)nc(N)c34)CC2)c1F` [Example-183, 5-[4-(2-Fluoro-3-methyl-benzyl)-piperazin-1-yl]-quinazoline-2,4-diamine], the EC50 is < 1 µM. Take `Nc1nc(N)c2c(N3CCN(Cc4ccc5ccccc5c4)CC3)cccc2n1` [Example-204, 5-(4-Naphthalen-2-ylmethyl-piperazin-1-yl)-quinazoline-2,4-diamine hydrochloride]: the EC50 was 1 to 5 µM. The same measure, in the same setting: to `Nc1nc(N)c2c(N3CCNCC3)cccc2n1` [Example-220, 5-piperazin-1-ylquinazoline-2,4-diamine] belongs < 1 µM.

Still in this test, the particulars now being: Mus musculus, Table 6, SMN2 promoter driving β-lactamase, read-out: Promoter Assay EC50.
As to `CC(C)(Oc1cccc2nc(N)nc(N)c12)C1CCN(Cc2c(Cl)cccc2Cl)CC1` [Example-224, 5-{1-[1-(2,6-Dichloro-benzyl)-piperidin-4-yl]-1-methyl-ethoxy}-quinazoline-2,4-diamine], the EC50 is < 1 µM. `CC(C)(Oc1cccc2nc(N)nc(N)c12)C1CCN(Cc2c(F)cccc2Cl)CC1` [Example-225, 5-{1-[1-(2-Chloro-6-fluoro-benzyl)-piperidin-4-yl]-1-methyl-ethoxy}-quinazoline-2,4-diamine]: the EC50 is < 1 µM. In the case of `CC1CC(COc2cccc3nc(N)nc(N)c23)CC(C)N1Cc1ccccc1F` (centres unmarked) [Example-226, 5-[1-(2-Fluoro-benzyl)-2,6-dimethyl-piperidin-4-ylmethoxy]-quinazoline-2,4-diamine], the EC50 is < 1 µM. Still for that read-out and setting: under `CC1CC(COc2cccc3nc(N)nc(N)c23)CC(C)N1Cc1c(F)cccc1Cl` (centres unmarked) [Example-227, 5-[1-(2-Chloro-6-fluoro-benzyl)-2,6-dimethyl-piperidin-4-ylmethoxy]-quinazoline-2,4-diamine] stands < 1 µM.

Staying with this test, now noted: Table 1, SMN2 promoter driving β-lactamase, 12 point dose curve, read-out: Promoter Assay EC50.
In the case of `Nc1nc(N)c2c(OCC3CCN(S(=O)(=O)c4ccccc4C(F)(F)F)CC3)cccc2n1` [Example-087], the EC50 is < 1 µM. Still for that read-out and setting: to `Nc1nc(N)c2c(OCC3CCN(S(=O)(=O)c4ccc(Cl)c(Cl)c4)CC3)cccc2n1` [Example-088] belongs < 1 µM. Regarding `CC(C)c1ccc(S(=O)(=O)N2CCC(COc3cccc4nc(N)nc(N)c34)CC2)cc1` [Example-089], the EC50 is < 1 µM. For `CC(=O)Nc1ccc(S(=O)(=O)N2CCC(COc3cccc4nc(N)nc(N)c34)CC2)cc1` [Example-090], the EC50 is < 1 µM. On to `Cc1noc(C)c1CN1CCC(COc2cccc3nc(N)nc(N)c23)CC1` [Example-091], for which the EC50 was < 1 µM. Turning to `Nc1nc(N)c2c(OCC3CCN(Cc4cc(Cl)nc(Cl)c4)CC3)cccc2n1` [Example-093], the EC50 was < 1 µM.

On to `CC(=O)Nc1nc(CN2CCC(COc3cccc4nc(N)nc(N)c34)CC2)cs1` [Example-094], for which the EC50 was < 1 µM. Same read-out and setting: to `Nc1nc(N)c2c(OCC3CCN(CC4COc5ccccc5O4)CC3)cccc2n1` (centres unmarked) [Example-096] belongs < 1 µM; to `Nc1nc(N)c2c(OCC3CCN(Cc4ccc(OC(F)(F)F)cc4)CC3)cccc2n1` [Example-102], < 1 µM.

As to `Nc1nc(N)c2c(OCC3CCN(Cc4cccc(OC(F)(F)F)c4)CC3)cccc2n1` [Example-103], the EC50 was < 1 µM.

`Nc1nc(N)c2c(OCC3CCN(Cc4ccc(Cl)cc4Cl)CC3)cccc2n1` [Example-104]: the EC50 was < 1 µM. The same measure, in the same setting: to `Nc1nc(N)c2c(OCC3CCN(C(=O)c4ccc5c(c4)OCO5)CC3)cccc2n1` [Example-105] belongs < 1 µM; to `Nc1nc(N)c2c(OCC3CCN(C(=O)c4c(F)cccc4F)CC3)cccc2n1` [Example-107], < 1 µM. Same read-out and setting: under `Nc1nc(N)c2c(OCC3CCN(C(=O)c4c(Cl)cccc4Cl)CC3)cccc2n1` [Example-108] stands < 1 µM; under `Nc1nc(N)c2c(OCC3CCN(C(=O)c4ccc(Cl)c(Cl)c4)CC3)cccc2n1` [Example-109], < 1 µM; under `Nc1nc(N)c2c(OCC3CCN(C(=O)c4cccc(C(F)(F)F)c4F)CC3)cccc2n1` [Example-110], < 1 µM. For the compound `Nc1nc(N)c2c(OCC3CCN(S(=O)(=O)c4ccc(F)cc4)CC3)cccc2n1` [Example-111], the EC50 was < 1 µM. Turning to `COc1cccc(CN2CCC(COc3cccc4nc(N)nc(N)c34)CC2)c1` [Example-114], the EC50 was < 1 µM. The same measure, in the same setting: to `Nc1nc(N)c2c(OCC3CCN(Cc4cc(Cl)cc(Cl)c4)CC3)cccc2n1` [Example-116] belongs < 1 µM; to `Nc1nc(N)c2c(OCC3CCN(Cc4ccccn4)CC3)cccc2n1` [Example-118], < 1 µM. On the same count and under the same terms, to `Nc1nc(N)c2c(OCC3CCN(Cc4ccncc4)CC3)cccc2n1` [Example-119] belongs < 1 µM; to `COc1ccc(CN2CCC(COc3cccc4nc(N)nc(N)c34)CC2)cc1F` [Example-122], < 1 µM; to `Nc1nc(N)c2c(OCC3CCN(Cc4ccc(C(F)(F)F)cc4)CC3)cccc2n1` [Example-123], < 1 µM. Still for that read-out and setting: under `COc1ccc(CN2CCC(COc3cccc4nc(N)nc(N)c34)CC2)cc1` [Example-124] stands < 1 µM; under `CC(C)(C)c1ccc(CN2CCC(COc3cccc4nc(N)nc(N)c34)CC2)cc1` [Example-129], < 1 µM. As to `Nc1nc(N)c2c(OCC3CCN(Cc4cccc(C(F)(F)F)c4)CC3)cccc2n1` [Example-130], the EC50 was < 1 µM. The same measure, in the same setting: to `Nc1nc(N)c2c(OCC3CCN(Cc4ccccc4C(F)(F)F)CC3)cccc2n1` [Example-131] belongs < 1 µM; to `Nc1nc(N)c2c(OCC3CCN(Cc4cccc(F)c4)CC3)cccc2n1` [Example-132], < 1 µM.

As for `COc1cc(CN2CCC(COc3cccc4nc(N)nc(N)c34)CC2)cc(OC)c1` [Example-133], the EC50 is < 1 µM. `Nc1nc(N)c2c(OCC3CCN(Cc4cccs4)CC3)cccc2n1` [Example-135]: the EC50 is < 1 µM. In the case of `Nc1nc(N)c2c(OCC3CCN(Cc4cc(F)cc(F)c4)CC3)cccc2n1` [Example-137], the EC50 was < 1 µM.

For the compound `Nc1nc(N)c2c(OCC3CCN(Cc4ccsc4)CC3)cccc2n1` [Example-145], the half-maximal effective concentration (EC50) is < 1 µM. The same measure, in the same setting: under `Cc1ccc(C)c(CN2CCC(COc3cccc4nc(N)nc(N)c34)CC2)c1` [Example-146] stands < 1 µM; under `Nc1nc(N)c2c(OCC3CCN(Cc4cc(F)c(F)c(F)c4)CC3)cccc2n1` [Example-148], < 1 µM. With `Nc1nc(N)c2c(OCC3CCN(Cc4ccc(F)cc4)CC3)cccc2n1` [Example-149], the EC50 is < 1 µM. Still for that read-out and setting: to `Cn1ccnc1CN1CCC(COc2cccc3nc(N)nc(N)c23)CC1` [Example-152] belongs 1 to 5 µM.

Staying with this test, now noted: Table 3, SMN2 promoter driving β-lactamase, read-out: Promoter Assay EC50.
In the case of `COC(=O)c1cccc(CN2CCC(COc3cccc4nc(N)nc(N)c34)CC2)c1` [Example-156], the EC50 is < 1 µM. On the same count and under the same terms, to `COC(=O)c1ccc(CN2CCC(COc3cccc4nc(N)nc(N)c34)CC2)cc1` [Example-157] belongs < 1 µM.
